This is an account of results in PMC6287599, “2,6-Bis(2-Benzimidazolyl)Pyridine (BBP) Is a Potent and Selective Inhibitor of Small Conductance Calcium-Activated Potassium (SK) Channels” (Frontiers in Pharmacology, 2018).

One assay deals with T1, hBK (Homo sapiens, UniProt Q12791).
T1 construct: expressed in transfected cells; host or cells: HEK293 (transient, co-transfected with eGFP)
In words: Manual whole cell patch clamp, HEK293 transiently transfected with hBK. The conditions noted are these: paxilline 3 μM, after BBP 1 μM. The assay is classed as cell-based. As to the method: HEK293 cells were transiently co-transfected with the plasmid of interest (hBK, hSK1, hSK2, hSK3 WT, rSK3 H491N, or hIK) and eGFP using standard Lipofectamine™ 2000 (Thermo Fisher Scientific, Waltham, Massachussets, USA) transfection protocols. After transfection, cells were incubated overnight before the experiments.
Manual patch clamp experiments were performed at room temperature in the whole cell configuration with a HEKA EPC9 amplifier and the Patchmaster software (HEKA Elektronik, Ludwigshafen, Germany). All currents were elicited every 2 s using an incremental 200 ms voltage-ramp protocol starting at −80 mV and finishing at +80 mV from a holding potential of 0 mV. […]
To assess the effect of BBP on other calcium-activated potassium channels (hBK, hSK3 WT, rSK3 H491N, and hIK), each individual current was first normalized to its cell size using membrane's capacitance (pA/pF) before statistical analysis. […] Statistical significance between saline and the effect of both BBP and the corresponding reference compound was determined for each channel using one-way ANOVA analysis. […]
After testing BBP on the three SK channel subtypes, we decided to explore whether other calcium-activated potassium channels were affected by the compound. […] Finally, a positive control was used to inhibit the remaining current and quantify the total effect of BBP. […]
Background: The patch-clamp technique gives a direct electrical read-out from membranes.

The target of the next assay is T2, rSK3 H491N (Rattus norvegicus, UniProt P70605, H486N).
T2 construct: expressed in transfected cells; host or cells: HEK293 (transient, co-transfected with eGFP)
The conditions noted are these: cited from earlier work.

Like-named read-outs stand apart in the source and are kept apart here. Positions of bridges follow the written chain, without caps; N, C: chain ends. No end group written: not given here.

T1 sequence (Q12791 whole entry): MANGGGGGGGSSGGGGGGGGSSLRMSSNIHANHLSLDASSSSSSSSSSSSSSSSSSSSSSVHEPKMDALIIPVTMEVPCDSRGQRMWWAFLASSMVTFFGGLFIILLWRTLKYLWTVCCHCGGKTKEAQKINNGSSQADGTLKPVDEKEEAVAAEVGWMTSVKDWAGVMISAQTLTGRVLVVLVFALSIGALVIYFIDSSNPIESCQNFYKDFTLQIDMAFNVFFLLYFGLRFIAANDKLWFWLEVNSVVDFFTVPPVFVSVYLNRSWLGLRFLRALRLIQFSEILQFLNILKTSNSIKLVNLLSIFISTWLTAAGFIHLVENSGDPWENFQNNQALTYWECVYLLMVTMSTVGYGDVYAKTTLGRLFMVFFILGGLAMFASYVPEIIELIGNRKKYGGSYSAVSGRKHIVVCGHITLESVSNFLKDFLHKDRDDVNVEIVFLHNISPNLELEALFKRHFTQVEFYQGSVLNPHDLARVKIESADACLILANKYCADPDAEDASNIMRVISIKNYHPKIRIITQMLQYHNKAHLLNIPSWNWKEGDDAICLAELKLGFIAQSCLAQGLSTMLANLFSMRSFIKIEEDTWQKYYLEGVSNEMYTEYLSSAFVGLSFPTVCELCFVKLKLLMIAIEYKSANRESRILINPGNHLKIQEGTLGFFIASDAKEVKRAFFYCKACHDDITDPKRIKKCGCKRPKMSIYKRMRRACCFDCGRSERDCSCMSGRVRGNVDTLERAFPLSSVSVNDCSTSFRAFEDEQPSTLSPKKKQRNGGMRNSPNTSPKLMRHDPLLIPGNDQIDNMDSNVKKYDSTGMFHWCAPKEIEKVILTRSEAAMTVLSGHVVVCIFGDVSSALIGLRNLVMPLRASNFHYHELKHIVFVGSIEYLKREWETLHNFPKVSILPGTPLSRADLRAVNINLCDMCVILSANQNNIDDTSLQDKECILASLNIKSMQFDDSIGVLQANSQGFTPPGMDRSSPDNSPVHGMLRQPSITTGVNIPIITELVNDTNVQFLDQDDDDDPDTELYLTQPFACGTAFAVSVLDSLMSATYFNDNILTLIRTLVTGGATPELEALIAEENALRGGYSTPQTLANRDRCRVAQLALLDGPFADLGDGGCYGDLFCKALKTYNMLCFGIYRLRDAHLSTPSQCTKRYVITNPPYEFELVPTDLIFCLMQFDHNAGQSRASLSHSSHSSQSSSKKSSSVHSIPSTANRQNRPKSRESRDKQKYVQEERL

In the case of `CC(C)(O)[C@H]1O[C@H]2CC[C@@]3(C)[C@@](O)(CC[C@H]4Cc5c([nH]c6ccccc56)[C@@]43C)C2=CC1=O` [paxilline, reference compound], the “Effect on remaining hBK current (reference)” value at hBK is reported as “totally inhibited”.

With `COc1cc2c3cc1Oc1cc(ccc1O)C[C@@H]1c4c(cc(OC)c(O)c4Oc4ccc(cc4)C[C@@H]3N(C)CC2)CC[N+]1(C)C` [D-tubocurarine], the “Sensitivity of rSK3 H491N mutant to blocker” value (shortened to “Sensitivity”) on rSK3 H491N (ref Lamy et al., 2010) is “insensitive”.

With `c1cc2cc(c1)C[n+]1ccc(c3ccccc31)NCc1ccc(cc1)CNc1cc[n+](c3ccccc13)C2` [UCL1684], on rSK3 H491N, the “Sensitivity” value is “insensitive”. Consider “apamin (CNCKAPETALCARRCQQH-NH2; disulfide 1-11, 3-15; ends not checked; UniProt P01500 28-45, looked up)”, for which the “Sensitivity” value in the assay with rSK3 H491N (ref Lamy et al., 2010) was “insensitive”.
